Entries after “also recorded” stand apart in the source; their conditions may differ. Counter-ions that a name gives are not always drawn. Like-named read-outs stand apart in the source and are kept apart here.
Columns and labels:
[1] = test system: native HEK293 cells; assay: Whole-cell patch-clamp control in native HEK293 cells without transfection; assay type: cell-based, human; settings: prolintane 30 µM, 5-HT 10 µM (Fig. S3)
Protocol: One day prior to recording, either native HEK293 cells or HEK293 cells stably expressing monoamine transporters were seeded at low density onto PDL-coated 35 mm dishes. Patch-clamp experiments were conducted at a holding potential of −60 mV, with substrate-induced currents recorded at room temperature (20–24 °C) using an […] amplifier and pClamp 11.2 software (MDS Analytical Technologies). During recordings, cells were continuously superfused via a DAD-12 perfusion system and an 8-tube manifold (ALA Scientific Instruments), delivering an external solution composed of 140 mM NaCl, 2.5 mM CaCl2, 3 mM KCl, 2 mM MgCl2, 20 mM glucose, and 10 mM HEPES, with pH adjusted to 7.3 using NaOH. The intracellular pipette solution, designed to mimic physiological ionic conditions, contained 133 mM potassium gluconate, 5.9 mM NaCl, 1 mM CaCl2, 0.7 mM MgCl2, 10 mM HEPES, and 10 mM EGTA, with pH set to 7.2 using KOH. Currents were filtered at 1 kHz and digitized at 10 kHz via a Digidata 1550 digitizer (MDS Analytical Technologies), followed by analysis in Clampfit 10.2 (Molecular Devices). Substance-induced currents were normalized to the current elicited by a saturating concentration of 5-HT (10 μM) of the same cell. Holding currents were subtracted, and a 50 Hz digital Gaussian low-pass filter was applied to the traces for further analysis.

[2] = target: T1, hDAT (Homo sapiens, UniProt Q01959); assay: Batch release assay ([3H]MPP+) in transfected HEK293 cells; assay type: cell-based; settings: % efflux of total uptake, compounds approximately at IC50 concentration
T1 construct: expressed in transfected cells
T1 sequence (Q01959 whole entry): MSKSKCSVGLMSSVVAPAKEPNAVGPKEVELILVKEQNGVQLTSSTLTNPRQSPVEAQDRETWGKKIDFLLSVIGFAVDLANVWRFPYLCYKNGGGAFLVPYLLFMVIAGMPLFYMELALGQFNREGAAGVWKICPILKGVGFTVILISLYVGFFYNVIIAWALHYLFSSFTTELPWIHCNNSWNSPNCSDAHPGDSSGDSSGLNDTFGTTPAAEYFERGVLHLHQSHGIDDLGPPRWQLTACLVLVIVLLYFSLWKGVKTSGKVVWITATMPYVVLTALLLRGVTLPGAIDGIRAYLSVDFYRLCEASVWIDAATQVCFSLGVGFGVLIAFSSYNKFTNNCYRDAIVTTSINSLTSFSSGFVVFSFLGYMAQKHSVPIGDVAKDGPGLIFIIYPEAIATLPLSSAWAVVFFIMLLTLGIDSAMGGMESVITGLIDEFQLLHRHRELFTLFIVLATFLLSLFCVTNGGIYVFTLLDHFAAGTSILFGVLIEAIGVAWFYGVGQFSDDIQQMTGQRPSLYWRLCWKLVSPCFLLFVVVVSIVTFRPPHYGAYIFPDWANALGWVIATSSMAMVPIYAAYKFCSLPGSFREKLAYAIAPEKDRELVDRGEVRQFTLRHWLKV
Protocol: (§1) Batch release assays were performed as described previously ([44]). In brief, HEK293 cells stably expressing monoamine transporters were seeded similar to the procedure used for uptake inhibition assays. A day after seeding cells were pre-loaded with 50 μl/well 0.015 μM [^3H]MPP^+ (hDAT, hNET), or 0.08 μM [^3H]5-HT (hSERT) for 20 min at 37 °C. Then cells were washed four times for 3 to 4 min each and further incubated with KHB or KHB + monensin. After 10 min of incubation, two (screening) to four (full traces; hSERT) 2 min incubations were performed to establish a baseline release without substance. […] Each fraction was transferred to an empty well in the 96-well plate. For screening, a known inhibitor (hDAT, hNET: 50 μM GBR12909) and releaser (hDAT, hNET: 10 μM S-(+)-amphetamine) were used as controls. Ultima Gold XR scintillation cocktail was added to the remaining cells, and each well contained a release fraction. The counted radioactivity in the respective fraction was expressed as a percentage of total radioactivity at the start of the fraction.
(§2) Half-maximal inhibitory concentrations (IC50) were obtained from fitting a sigmoidal dose–response ( Y=Bottom+Top−Bottom/1+10^((LogIC50−X)·HillSlope) ) in GraphPad Prism 10.3.1 (GraphPad Software Inc.). Uptake inhibition data were evaluated by one-way ANOVA followed by Tukey's multiple comparisons test. Release data were analyzed using a two-way ANOVA (batch release) or a mixed-effects model with Geisser-Greenhouse correction (time-dependent traces) employing Šidák correction for comparing differences between compounds with or without the addition of monensin.

[3] = target: T2, hNET (Homo sapiens, UniProt P23975); assay: as above; assay type: cell-based; settings: % efflux of total uptake, compounds approximately at IC50 concentration
T2 construct: expressed in transfected cells
T2 sequence (P23975 whole entry): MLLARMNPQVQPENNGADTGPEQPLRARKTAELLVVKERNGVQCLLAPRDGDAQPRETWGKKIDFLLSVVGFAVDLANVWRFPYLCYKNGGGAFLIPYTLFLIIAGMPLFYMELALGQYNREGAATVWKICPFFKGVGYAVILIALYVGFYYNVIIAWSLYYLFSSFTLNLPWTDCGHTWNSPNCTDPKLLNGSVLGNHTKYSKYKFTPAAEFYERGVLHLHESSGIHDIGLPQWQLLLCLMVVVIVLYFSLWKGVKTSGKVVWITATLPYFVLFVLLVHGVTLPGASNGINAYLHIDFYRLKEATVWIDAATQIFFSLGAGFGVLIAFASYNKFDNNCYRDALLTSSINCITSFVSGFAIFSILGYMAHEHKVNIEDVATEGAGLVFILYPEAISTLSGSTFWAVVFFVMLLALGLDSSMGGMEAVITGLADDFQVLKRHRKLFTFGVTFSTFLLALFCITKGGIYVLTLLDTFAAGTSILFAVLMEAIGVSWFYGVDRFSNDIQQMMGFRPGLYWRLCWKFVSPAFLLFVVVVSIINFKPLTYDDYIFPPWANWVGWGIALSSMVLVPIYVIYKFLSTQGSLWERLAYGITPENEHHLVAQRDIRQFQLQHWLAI
Protocol: as §1, §2

[4] = target: T3, hSERT (Homo sapiens, UniProt P31645); assay type: cell-based
T3 construct: expressed in transfected cells
T3 sequence (P31645 whole entry): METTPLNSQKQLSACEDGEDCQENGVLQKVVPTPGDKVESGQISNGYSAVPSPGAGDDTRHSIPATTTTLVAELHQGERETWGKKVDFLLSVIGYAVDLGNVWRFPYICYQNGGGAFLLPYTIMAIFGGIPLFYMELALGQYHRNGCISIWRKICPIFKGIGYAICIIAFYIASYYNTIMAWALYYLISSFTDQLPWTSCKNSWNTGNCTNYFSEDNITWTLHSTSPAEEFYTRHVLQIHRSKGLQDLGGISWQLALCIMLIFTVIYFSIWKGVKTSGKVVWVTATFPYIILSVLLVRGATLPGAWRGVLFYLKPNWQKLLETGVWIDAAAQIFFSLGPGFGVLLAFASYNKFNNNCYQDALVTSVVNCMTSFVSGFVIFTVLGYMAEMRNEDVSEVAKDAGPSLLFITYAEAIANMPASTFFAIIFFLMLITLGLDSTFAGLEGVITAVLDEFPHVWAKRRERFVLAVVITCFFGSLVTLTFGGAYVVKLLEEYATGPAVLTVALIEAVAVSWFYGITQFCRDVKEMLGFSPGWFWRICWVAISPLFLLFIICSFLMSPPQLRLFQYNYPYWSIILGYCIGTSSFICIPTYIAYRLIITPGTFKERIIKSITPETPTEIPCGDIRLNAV
Protocol: as §1, §2

[5] = target: rSERT (Rattus norvegicus, UniProt P31652); assay type: cell-based; parameters: expressed in transfected cells; settings: for Mean diff, rSERT efflux ± Mon (Šídák's multiple comparisons test): drug alone vs drug + monensin (Mon)
Chain of rSERT (P31652 whole entry, the tested form may be a part): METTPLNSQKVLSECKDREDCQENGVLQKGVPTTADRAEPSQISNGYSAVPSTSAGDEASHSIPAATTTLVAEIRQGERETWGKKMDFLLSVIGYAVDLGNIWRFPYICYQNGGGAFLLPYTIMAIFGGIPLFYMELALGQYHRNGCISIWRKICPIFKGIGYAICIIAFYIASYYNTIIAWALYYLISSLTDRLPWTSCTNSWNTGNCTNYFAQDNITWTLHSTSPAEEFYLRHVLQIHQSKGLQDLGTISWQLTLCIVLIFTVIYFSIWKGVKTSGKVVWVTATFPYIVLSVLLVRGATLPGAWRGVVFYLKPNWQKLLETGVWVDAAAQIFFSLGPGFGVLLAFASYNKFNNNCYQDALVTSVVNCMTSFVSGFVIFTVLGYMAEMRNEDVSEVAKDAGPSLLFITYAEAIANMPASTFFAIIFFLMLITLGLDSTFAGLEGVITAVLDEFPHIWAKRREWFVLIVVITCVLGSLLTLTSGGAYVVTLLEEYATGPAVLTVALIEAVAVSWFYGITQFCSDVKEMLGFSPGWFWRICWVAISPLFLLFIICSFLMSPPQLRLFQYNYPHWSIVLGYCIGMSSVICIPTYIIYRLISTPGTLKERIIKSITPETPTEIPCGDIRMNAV
Protocol: A day prior to the experiment, HEK293 cells stably expressing hSERT or rat SERT (rSERT) were seeded at a density of 100,000 cells per channel into 6 channel flow ibidi slides (Gräfelfing, Germany). On the day of the experiments, cells were preloaded with 0.1 μM [^3H]5-HT at 37 °C, 5% CO2 for 20 min. Subsequently, the slides were transferred to the superfusion apparatus ([59]). Cells were then washed with KHB for 15 min under a constant flow of 0.5 ml/min. Fractions were collected every 2 min in 8 ml vials containing 2 ml scintillation cocktail. Collection began with three baseline fractions using KHB, followed by four additional basal release fractions with KHB, either with or without 10 μM monensin. […] To assess residual radioactivity within the cells, they were lysed with 1% sodium dodecyl sulfate (SDS), and three final fractions were obtained. The measured tritiated substrate in each fraction was expressed as a percentage of the initial tritiated substrate present at the start of that fraction.
Uptake inhibition data were evaluated by one-way ANOVA followed by Tukey's multiple comparisons test. Release data were analyzed using a two-way ANOVA (batch release) or a mixed-effects model with Geisser-Greenhouse correction (time-dependent traces) employing Šidák correction for comparing differences between compounds with or without the addition of monensin.

SMILES: NCCc1c[nH]c2ccc(O)cc12 [5-HT, serotonin]
- current in native HEK293 cells without transfection [1]: no current could be recorded; also recorded: do not induce currents

SMILES: C[C@H](N)Cc1ccccc1 [S-(+)-amphetamine, dextroamphetamine hemi sulfate salt, reference compound]
- hDAT-mediated efflux, predicted (LS) mean diff, No mon - Mon [2]: -1.735
- hNET-mediated efflux, predicted (LS) mean diff, No mon - Mon [3]: -5.397

SMILES: Fc1ccc(C(OCCN2CCN(CCCc3ccccc3)CC2)c2ccc(F)cc2)cc1 [GBR12909, vanoxerine, reference compound]
- hDAT-mediated efflux, predicted (LS) mean diff, No mon - Mon [2]: -0.7725
- hNET-mediated efflux, predicted (LS) mean diff, No mon - Mon [3]: -0.7072

SMILES: CC(N)Cc1ccc(Cl)cc1 (stereo not shown) [pCA, para-chloroamphetamine]
- hSERT-mediated efflux, predicted (LS) mean diff, No mon - Mon [4]: -18.87
- Mean diff, rSERT efflux ± Mon (Šídák's multiple comparisons test) ([5]; Row 1 (time fraction)): 0.1306
- Mean diff, rSERT efflux ± Mon (Šídák's multiple comparisons test) ([5]; Row 2 (time fraction)): 0.1761
- Mean diff, rSERT efflux ± Mon (Šídák's multiple comparisons test) ([5]; Row 3 (time fraction)): 0.2854
- Mean diff, rSERT efflux ± Mon (Šídák's multiple comparisons test) ([5]; Row 4 (time fraction)): 0.1377
- Mean diff, rSERT efflux ± Mon (Šídák's multiple comparisons test) ([5]; Row 5 (time fraction)): -0.4218
- Mean diff, rSERT efflux ± Mon (Šídák's multiple comparisons test) ([5]; Row 6 (time fraction)): -0.8916
- Mean diff, rSERT efflux ± Mon (Šídák's multiple comparisons test) ([5]; Row 7 (time fraction)): -1.153
- Mean diff, rSERT efflux ± Mon (Šídák's multiple comparisons test) ([5]; Row 8 (time fraction)): -7.649
- Mean diff, rSERT efflux ± Mon (Šídák's multiple comparisons test) ([5]; Row 9 (time fraction)): -4.816
- Mean diff, rSERT efflux ± Mon (Šídák's multiple comparisons test) ([5]; Row 10 (time fraction)): -3.007
- Mean diff, rSERT efflux ± Mon (Šídák's multiple comparisons test) ([5]; Row 11 (time fraction)): -2.599
- Mean diff, rSERT efflux ± Mon (Šídák's multiple comparisons test) ([5]; Row 12 (time fraction)): -2.043
- magnitude of [3H]5-HT release in cells expressing rSERT compared to hSERT ([5]; superfusion, HEK293 cells): significantly lower magnitude
